In assay [1] the target is T1, recombinant full-length TDP1 (Homo sapiens, UniProt Q9NUW8). Also noted: was incubated for 15 min. with recombinant full-length TDP1 or TDP1^Y204F (40 pM); method as in PMID 31199869. The note with it: reported data; cited from earlier work.
In assay [2] the target is T1, recombinant full-length TDP1. As to the kind of experiment: gel-based TDP1 fluorescence assay in vitro (wild-type TDP1).
Protocol: The inhibition of TDP1 or TDP1^Y204F was also conducted using a gel-based assay as previously described[13],[14]. Briefly, the DNA substrate (1 nM, 5′Cy5-[sequence]-pY-3′, Cy5-N14Y) was incubated for 15 min. with recombinant full-length TDP1 or TDP1^Y204F (40 pM) in the absence or presence of inhibitors for 5 min. or 3 hr preincubation time as shown in Table 1 at room temperature (22 °C) in TDP1 reaction buffer (50 mM Tris HCl, pH 7.5, 80 mM KCl, 2 mM EDTA, 1 mM DTT, 40 µg/mL BSA and 0.01% Tween-20). […] Samples were then subjected to a 20% denaturing PAGE gel following by gel scanning using a Typhoon FLA 9500 scanner (GE Healthcare). The IC50 values of TDP1 inhibitors were calculated by comparing the percentage of cleavage product (5′Cy5-[sequence]-p-3′, Cy5-N14P) to DMSO control.
Assay [3] has as its target T2, TDP1^Y204F (Homo sapiens, UniProt Q9NUW8, Y204F).
T2 construct: was incubated for 15 min. with recombinant full-length TDP1 or TDP1^Y204F (40 pM)
As to the kind of experiment: gel-based TDP1 fluorescence assay in vitro (mutant TDP1 Y204F). Type of assay: biochemical. As to the method: The inhibition of TDP1 or TDP1^Y204F was also conducted using a gel-based assay as previously described[13],[14]. Briefly, the DNA substrate (1 nM, 5′Cy5-[…]-pY-3′, Cy5-N14Y) was incubated for 15 min. with recombinant full-length TDP1 or TDP1^Y204F (40 pM) in the absence or presence of inhibitors for 5 min. or 3 hr preincubation time as shown in Table 1 at room temperature (22 °C) in TDP1 reaction buffer (50 mM Tris HCl, pH 7.5, 80 mM KCl, 2 mM EDTA, 1 mM DTT, 40 µg/mL BSA and 0.01% Tween-20). […] Samples were then subjected to a 20% denaturing PAGE gel following by gel scanning using a Typhoon FLA 9500 scanner (GE Healthcare). The IC50 values of TDP1 inhibitors were calculated by comparing the percentage of cleavage product (5′Cy5-[…]-p-3′, Cy5-N14P) to DMSO control.

Assay [4] addresses T3, TDP1(148-608) (Homo sapiens, UniProt Q9NUW8).
T3 construct: The recombinant TDP1(148-608) (2 μg) in 50 μL of buffer
As to the kind of experiment: intact mass LC-MS analysis of covalent modification. Type of assay: binding. The note with it: 50 μM compound, overnight 25 °C, 1:65 enzyme/compound. The method, then:
The samples were incubated overnight at 25 °C with shaking at 500 rpm. The samples were diluted with water to 100 μL and analyzed by liquid chromatography coupled online with mass spectrometry (LC-MS)[67]. Separation was performed on a Vanquish Flex chromatographic system (Thermo) using a MabPac reversed-phase column (4 μm, 1500 Å, 3 ×50 mm, Thermo) maintained at 50 °C. The labeled proteins were resolved at 0.5 mL/min over a 15 min gradient of buffer B (47.5% acetonitrile, 47.5% isopropanol, 5% water, 0.2% formic acid (FA)) from 2 to 100% followed by re-equilibration at 2% buffer B (total run time 20 min) against buffer A (5% acetonitrile, 0.2% FA in water). The eluates from the column were introduced to an Exactive Plus EMR mass spectrometer (Thermo) through a heated electrospray ionization (HESI) source. Intact mass spectra were acquired over 500-2000 m/z window at 35,000 FT resolution (at 200 m/z), averaging 10 microscans, with an AGC target of 3 ×10^6, max injection time of 200 ms, 80% S-lens RF level, 20 V source-induced dissociation, and capillary temperature set at 275 °C. The resulting spectra were manually averaged followed by deconvolution using the ReSpect algorithm in BioPharma Finder 2.0 (Thermo). […]

Where [5] appears, read: TDP1 IC50, pre-incubation time 5 min with wild-type (WT) TDP1.

Where two headings read alike, the source gives them in different places.

T1 sequence (Q9NUW8 whole entry): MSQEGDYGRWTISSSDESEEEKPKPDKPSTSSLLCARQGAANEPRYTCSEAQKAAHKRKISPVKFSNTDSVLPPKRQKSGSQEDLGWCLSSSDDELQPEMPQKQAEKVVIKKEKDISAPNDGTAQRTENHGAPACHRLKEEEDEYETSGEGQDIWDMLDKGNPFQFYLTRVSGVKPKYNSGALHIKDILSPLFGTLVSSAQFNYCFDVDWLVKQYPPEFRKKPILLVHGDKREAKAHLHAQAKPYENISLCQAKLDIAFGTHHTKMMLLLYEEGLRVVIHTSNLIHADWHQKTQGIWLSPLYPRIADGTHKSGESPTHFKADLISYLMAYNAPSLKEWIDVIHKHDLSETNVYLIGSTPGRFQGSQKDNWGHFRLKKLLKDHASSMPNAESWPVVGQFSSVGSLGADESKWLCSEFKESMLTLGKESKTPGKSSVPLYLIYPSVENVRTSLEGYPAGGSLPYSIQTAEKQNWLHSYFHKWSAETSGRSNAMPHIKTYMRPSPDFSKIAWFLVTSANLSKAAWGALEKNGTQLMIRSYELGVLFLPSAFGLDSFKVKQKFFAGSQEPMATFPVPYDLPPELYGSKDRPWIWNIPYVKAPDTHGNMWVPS
T2 sequence (Q9NUW8 whole entry Y204F): as the sequence (Q9NUW8 whole entry) above, with Y204F counted along it
T3 sequence (Q9NUW8 148-608): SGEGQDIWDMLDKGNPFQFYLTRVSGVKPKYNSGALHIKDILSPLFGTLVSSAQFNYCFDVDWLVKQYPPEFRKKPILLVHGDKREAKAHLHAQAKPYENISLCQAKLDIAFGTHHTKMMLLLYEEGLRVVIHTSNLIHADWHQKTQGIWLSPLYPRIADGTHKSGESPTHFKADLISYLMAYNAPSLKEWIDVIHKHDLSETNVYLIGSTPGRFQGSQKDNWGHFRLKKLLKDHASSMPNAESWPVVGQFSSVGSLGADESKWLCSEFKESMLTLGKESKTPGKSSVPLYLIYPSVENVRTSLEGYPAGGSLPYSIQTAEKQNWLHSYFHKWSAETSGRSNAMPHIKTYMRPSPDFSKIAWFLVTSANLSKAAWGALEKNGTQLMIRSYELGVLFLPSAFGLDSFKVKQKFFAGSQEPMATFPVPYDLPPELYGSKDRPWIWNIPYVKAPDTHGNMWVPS

`O=C(O)c1cnc2ccccc2c1O` [Compound 1a]: in assay [1], the IC50 is 7.2 mM.
On to `O=C(O)c1c[nH]c2c(S(=O)(=O)O)cccc2c1=O` [Compound 2a], for which, in assay [2], the IC50 was 4.61 ± 0.35 mM.
The same measure, in the same setting: with `O=C(O)c1c[nH]c2c(S(=O)(=O)Nc3ccccc3)cccc2c1=O` [Compound 2b] the figure was greater than 9 mM; with `O=C(O)c1c[nH]c2c(S(=O)(=O)NCCc3ccccc3)cccc2c1=O` [Compound 2c], greater than 9 mM.
As for `O=C(O)c1c[nH]c2c(S(=O)(=O)NCCCc3ccccc3)cccc2c1=O` [Compound 2d], in assay [2] (read-out: TDP1 IC50, WT TDP1, dash = no activity up to highest tested concentration), the IC50 was greater than 9 mM.
As for `O=C(O)c1c[nH]c2c(-c3ccccc3)cccc2c1=O` [Compound 3a], the IC50 in assay [2] was determined as 5.17 ± 0.14 mM.
As for `O=C(O)c1c[nH]c2c(-c3cccc(OS(=O)(=O)F)c3)cccc2c1=O` [Compound 3d], the IC50 in assay [2] (setting [5]) came out at 0.69 ± 0.04 mM.
In the case of `O=C(NCCc1ccccc1)c1ccc(-c2cccc3c(=O)c(C(=O)O)c[nH]c23)c(OS(=O)(=O)F)c1` [Compound 3g, 8-(2-((fluorosulfonyl)oxy)-4-(phenethylcarbamoyl)phenyl)-4-oxo-1,4-dihydroquinoline-3-carboxylic acid], the IC50 in assay [3] is 4.69 ± 1.26 mM; in assay [2] (setting [5]), 0.41 ± 0.07 mM; in assay [2] (TDP1 IC50, pre-incubation time 3 h with WT TDP1) it was 0.27 ± 0.03 mM. In addition, in assay [3] (5 min pre-incubation), the “fold reduced inhibitory potency with mutant TDP1^Y204F vs WT” value turned out to be 11 fold. The “mass shift of single covalent modification of TDP1(148-608) (loss of fluorine)” value in assay [4] is “+490.83 Da”. Moreover, the “fold increase in inhibitory potency relative to parent compound 3c” value in assay [2] is on record as 5 to 10 fold. The “fold increase in inhibitory potency compared with quinolone 1a” value in assay [2] (5 min pre-incubation, WT TDP1, vs 1a IC50 7.2 mM) is given as 18 fold. Also, the “fold increase in TDP1 inhibitory potency compared to quinolone 3a” value in assay [2] (5 min pre-incubation, WT TDP1, vs 3a IC50 5.17 mM) is given as 13 fold. In assay [2] (WT TDP1), the “fold enhancement of IC50 by extending pre-incubation time from 5 min to 3 h” value stood at 1.5 fold.

Usually IC50 stands for the midpoint of a concentration-inhibition curve.

Values taken from paper PMC11405833, “Targeted sulfur(VI) fluoride exchange-mediated covalent modification of a tyrosine residue in the catalytic pocket of tyrosyl-DNA phosphodiesterase 1” (Communications Chemistry, 2024).
